# Experiments:
# [1] = tested on: H. contortus, susceptible (TxPh-2011-S) and MDR (UGA MDR 2020) isolates; assay: Larval development assay (LDA); type: cell-based, Haemonchus contortus
# [2] = tested on: MDR isolate of H. contortus, exsheathed L3 larvae; assay: Larval motility assay (LMA), Worminator; type: cell-based, Haemonchus contortus
# Description: The H. contortus isolates used were TxPh-2011-S (Texas A&M University, USA) and UGA MDR 2020 (University of Georgia Athens, USA). TxPh-2011-S (Texas A&M University, USA) was originally isolated from Pronghorn antelope in West Texas in 2011 and is fully drug susceptible, phenotypically determined by the DrenchRite larval development assay (LDA; Microbial Screening Technologies, Kemps Creek, Australia). To establish this as a laboratory isolate, it was initially passaged in goats at Texas A&M University and then at The University of Georgia using both goats and sheep, and it is currently maintained in lambs at Louisiana State University. A nemabiome assay ([69]) was conducted at the University of Calgary to confirm that the isolate is 100% H. contortus. The UGA MDR 2020 (University of Georgia Athens, USA) isolate is resistant to ivermectin, benzimidazoles, levamisole, and moxidectin, as determined by the DrenchRite LDA. To establish this as a laboratory isolate, feces collected from a sheep farm in Georgia with known history of multiple anthelmintic resistance were cultured. Two donor goats were infected with the larvae recovered, which were morphologically ([70]) identified as 89% H. contortus. A fecal egg count reduction test (FECRT) was then performed in the infected goats. First, a combination treatment with albendazole at 15 mg/kg and ivermectin at 0.4 mg/kg was performed, followed by a treatment with levamisole at 12 mg/kg. Later, and to confirm resistance to moxidectin, another treatment was administered using a dose of 0.4 mg/kg of moxidectin. Posttreatment feces were recovered, coprocultures were established, and L3 larvae were identified as 100% H. contortus. Resistance to all drugs was subsequently confirmed using a DrenchRite assay.
# For LMAs, the first phase testing using compounds NSC133100 and NSC177383 was done using the Worminator system in parallel with the LDA. Initial stock solutions of 12.5 mM were prepared for each compound using 100% DMSO as a solvent. Initial stock solutions (25 μL) were then diluted in 475 μL of culture media to yield working stock solutions of 625.00, 156.30, 39.10, 9.80, 2.40, 0.60, 0.20, 0.04, and 0.00 μM in 5% DMSO for each drug. In plate, 200 μL of working stock solutions were then diluted in 800 μL of culture media, yielding concentrations of 125.00, 31.25, 7.81, 1.95, 0.49, 0.12, and 0.00 μM in 1% DMSO. For the second phase of testing, compounds showing anthelmintic activity with the LDA were tested in a second round at higher concentrations than in the first phase of testing. Initial stocks of 50 mM were prepared for compounds NSC133100, NSC177383, NSC145612, and NSC56410 using 100% DMSO as a solvent. Initial stock solutions (25-μL portions) were then diluted in 475 μL of culture media consisting of 65% Lauria-Bertani (LB) (Thermo Fisher Scientific, Branchburg, NJ), 25% NCTC (Sigma-Aldrich), 10% fetal bovine serum (Atlanta Biologicals, Flowery Branch, GA), Pen/Strep (Sigma-Aldrich) at a final concentration of […], and amphotericin B (Sigma-Aldrich) at a final concentration of […]. The working stock solutions yielded concentrations of 2,500.00, 625.00, 156.30, 39.10, 9.80, 2.40, and 0.00 μM in 5% DMSO for each compound. In each well in the plate, 200 μL of working stock solutions were then diluted in 800 μL of culture media, yielding final concentrations of 500.00, 125.00, 31.30, 7.81, 1.95, 0.49, and 0.00 μM in 1% DMSO.
# For the motility assays, 24-well plates with inserts were used (Costar, catalog no. 3379; Corning, Inc., Corning, NY). Portions (640 μL) of culture media were added to each well, and approximately 50 exsheathed larvae contained in 160 μL of culture media in each insert. Once pretreatment readings were taken, 160 μL of the drug solution was added to the well, and another 40 μL was added to the insert, reaching the final concentrations described in the protocol above. All concentrations were tested in triplicate. […]
structure (smiles),measurement,setting,value
CO[C@@H]1/C=C/O[C@@]2(C)Oc3c(C)c(O)c4c(c3C2=O)C(=N[C@@H]2CC[C@@H](O)O[C@H]2C)C=C(NC(=O)/C(C)=C\C(=O)[C@@H]2C[C@@H]2[C@H](O)[C@@H](C)[C@@H](O)[C@@H](C)[C@H](OC(C)=O)[C@@H]1C)C4=O [NSC177383],fold higher potency than NSC145612,[1]; LDA IC50,~ 7 fold
same,Hill slope,[1]; LDA dose-response curve,1.23
same,anthelmintic activity in LDA,[1]; drug-susceptible and MDR isolates,activity in the lower micromolar range
same,Percent inhibition of larval motility,"[2]; 15.625 µM, 1 hour",-22.8%
same,Percent inhibition of larval motility,"[2]; 15.625 µM, 4 hours",-24.6%
same,Percent inhibition of larval motility,"[2]; 15.625 µM, 24 hours",15.6%
same,Percent inhibition of larval motility,"[2]; 15.625 µM, 48 hours",3.0%
same,Percent inhibition of larval motility,"[2]; 15.625 µM, 72 hours",-5.8%
same,Percent inhibition of larval motility,"[2]; 15.625 µM, 96 hours",-22.4%
same,Percent inhibition of larval motility,"[2]; 15.625 µM, Initial",19.9%
same,Percent inhibition of larval motility,"[2]; 31.25 µM, 1 hour",2.3%
same,Percent inhibition of larval motility,"[2]; 31.25 µM, 4 hours",5.2%
same,Percent inhibition of larval motility,"[2]; 31.25 µM, 24 hours",13.8%
same,Percent inhibition of larval motility,"[2]; 31.25 µM, 48 hours",41.2%
same,Percent inhibition of larval motility,"[2]; 31.25 µM, 72 hours",25.5%
same,Percent inhibition of larval motility,"[2]; 31.25 µM, 96 hours",17.1%
same,Percent inhibition of larval motility,"[2]; 31.25 µM, Initial",23.2%
same,Percent inhibition of larval motility,"[2]; 62.5 µM, 4 hours",-28.6%
same,Percent inhibition of larval motility,"[2]; 62.5 µM, 24 hours",23.5%
same,Percent inhibition of larval motility,"[2]; 62.5 µM, 48 hours",26.0%
same,Percent inhibition of larval motility,"[2]; 125 µM, 1 hour",26.8%
same,Percent inhibition of larval motility,"[2]; 125 µM, 4 hours",-34.1%
same,Percent inhibition of larval motility,"[2]; 125 µM, 24 hours",20.5%
same,Percent inhibition of larval motility,"[2]; 125 µM, 48 hours",31.1%
same,Percent inhibition of larval motility,"[2]; 125 µM, 72 hours",4.1%
same,Percent inhibition of larval motility,"[2]; 125 µM, 96 hours",5.7%
same,Percent inhibition of larval motility,"[2]; 125 µM, Initial",22.5%
same,Percent inhibition of larval motility,"[2]; 250 µM, 1 hour",28.8%
same,Percent inhibition of larval motility,"[2]; 250 µM, 24 hours",30.2%
same,Percent inhibition of larval motility,"[2]; 250 µM, 48 hours",44.8%
same,Percent inhibition of larval motility,"[2]; 250 µM, 96 hours",31.2%
same,Percent inhibition of larval motility,"[2]; 250 µM, Initial",43.9%
same,Percent inhibition of larval motility,"[2]; 500 µM, 1 hour",27.1%
same,Percent inhibition of larval motility,"[2]; 500 µM, 4 hours",-12.9%
same,Percent inhibition of larval motility,"[2]; 500 µM, 24 hours",26.6%
same,Percent inhibition of larval motility,"[2]; 500 µM, 48 hours",49.1%
same,Percent inhibition of larval motility,"[2]; 500 µM, 72 hours",32.3%
same,Percent inhibition of larval motility,"[2]; 500 µM, 96 hours",21.4%
same,Percent inhibition of larval motility,"[2]; 500 µM, Initial",36.4%

# Source: PMC10269165 (Antimicrobial Agents and Chemotherapy, 2023)
